# Experimental data published in patent US6602870B2, “Oral dosage form for administration of the combination of tegafur, uracil, folinic acid, and oxaliplatin and method of using the same” (Bristol-Myers Squibb Company, priority 2000, dated 2003).
# “And” between values parts separate entries of the source, which are not always exact repeats. Identical values can stand only once.
# Key:
# [1] = test system: human HT29 colorectal tumor cell xenografts; assay: Growth inhibition study in nude mice transplanted with human HT29 colorectal tumor cell xenografts; type: in vivo
# Method: Growth inhibition studies were performed using nude mice transplanted with human HT29 colorectal tumor cell xenografts and 1) not treated (control group), or treated 2) with oral UFT (20 mg/kg/day) and calcium folinate (4 mg/kg/day) for 28 days; 3) intraperitonealy with oxaliplatin (10 mg/kg at day 1), or 4) with a combination of oxaliplatin with UFT and calcium folinate. Tumor measurements were performed twice a week, and animals were sacrificed at day 28. The tumors were excised and weighed. Two separate experiments were performed, for a total number of 25 animals in each group.
# Human colorectal cancer HT29 cells, obtained from Dr. J. Fogh (Sloan Kettering Institute for Cancer Research, N.Y.), were cultured in DMEM (Dulbeccos modified Eagle's medium, Eurobio, Paris, France), supplemented with 10% heat-decomplemented fetal bovine serum (Boehringer, Manheim, Germany), 100 U/ml penicillin, 100 μg/ml streptomycin and […] glutamine. Cells were grown at 37° C. in a humidified atmosphere containing 5% CO2. The medium was renewed every 2 days, and the cells were passaged twice a week by trypsin/EDTA to maintain the cells in exponential growth.
# Female BALB/c nude (nu+/nu+) aged 6 weeks were maintained in pathogen free state. Human HT29 colorectal xenograft (1×10^6 cells) was transplanted sub-cutaneously into the hind limb of each animal. Treatment was initiated 14 days later when the tumor became easily palpable and measurable (mean size of tumor surface=33 mm^2).
# Oxaliplatin was administered intraperitoneally at a dose of 10 mg/kg day 1. […]
# Two axes (mm) of tumor (the longest axis and the axis perpendicular to the longest axis) were measured with a caliper. Tumor measurements and body weights were recorded twice a week. […] Toxicity was evaluated in terms of body weight ratio (Wn/Wo) and mortality; Wn is the body weight measured n days after the initial administration, while Wo is the body weight at the start of administration. […] Results are expressed as mean weight (grams)±standard deviation. […]
# [2] = Toxicity (body weight ratio, mortality) in HT29 xenograft nude mice; type: in vivo; conditions: day 28 before sacrifice; 25 animals per group
# Method: Tumor measurements and body weights were recorded twice a week. […] For each experiment, the same observer made all measurements to minimize variations. Toxicity was evaluated in terms of body weight ratio (Wn/Wo) and mortality; Wn is the body weight measured n days after the initial administration, while Wo is the body weight at the start of administration. […] Two consecutive experiments gave similar data, and results represent the average of all data for a total of 25 animals per group. The means of each of the four groups were compared using the one-way analysis of variance. The Barlett's test was used for homogeneity of variances and the Tukey-Kramer multiple comparison test for inter-group comparison. Data analysis was performed using an IBM PC. Statistical analysis and graphs were performed using Instat and Prism software (GraphPad, San Diego, Calif.).
# Body weight was evaluated in terms of the ratio of body weight measured n days after treatment (Wn) as compared to the body weight at the start of treatment (Wo). All animals (25 per group) were weighed twice a week.
structure (smiles),measurement,setting,value
"O=C1[O][Pt]2([NH][C@@H]3CCCC[C@H]3[NH]2)[O]C1=O [oxaliplatin, [(1R, 2R)-1,2-cyclohexanediamine-N,N′][oxalato(2-)-O, O′]platinum]",Decrease of tumor size (tumor growth inhibition) as compared to control,"[1]; day 28, FIG. 1",24%
same,Tumor weight decrease as compared to control,"[1]; day 28, same doses",29.9% and 30%
same,Mean tumor weight,"[1]; tumors excised 28 days after treatment initiation, 25 animals per group, UFT 20 mg/kg/day + calcium folinate 4 mg/kg/day oral day 1-28, oxaliplatin 10 mg/kg i.p. day 1",2.03 ± 0.14 g
same,Body Weight Ratio (Wn/Wo),[2],1.05 ± 0.09
